In patent US11000033B2, “Ketone or oxime compound, and herbicide” (NISSAN CHEMICAL CORPORATION, priority 2014, dated 2021):

Experiments:
Type in all cases: in vivo
[1] = tested on: Echinochloa oryzacola Vasing.; assay: Test Example 1: herbicidal activity, application before weed generation in submerged conditions (symbol A); conditions: application herbicide amount 320 g/ha
In short: (§1)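 Pre-emergence, paddy conditions: emulsifiable formulation diluted in water, dosed onto floodwater (4 cm depth) on sowing day. Alluvial soil; weeds sown mixed; rice transplanted at 2.5-leaf stage. Greenhouse 25–30 °C, 3 wk. Score 0–5 (5 = ≥90% kill, 0 = ≤5%).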

[2] = tested on: Monochoria vaginalis; assay: Test Example 1: herbicidal activity, application before weed generation in submerged conditions (symbol C); conditions: application herbicide amount 320 g/ha
In short: as §1

[3] = tested on: Echinochloa oryzacola Vasing.; assay: Test Example 2: herbicidal activity, application during weed generation in submerged conditions (symbol A); conditions: Table 23; application herbicide amount 320 g/ha; grade 0-5 by criteria of Test Example 1
In short: (§2)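 Each pot contained alluvial soil under 4 cm of water with seeds of all three weeds sown together. Following growth at 25° C. to 30° C. to the one- to two-leaf stage, the floodwater received diluted emulsion at a predetermined amount; visual assessment followed at 3 weeks.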

[4] = tested on: Scirpus juncoides; assay: Test Example 2: herbicidal activity, application during weed generation in submerged conditions (symbol B); conditions: Table 23; application herbicide amount 320 g/ha; grade 0-5 by criteria of Test Example 1
In short: as §2

[5] = tested on: Monochoria vaginalis; assay: Test Example 2: herbicidal activity, application during weed generation in submerged conditions (symbol C); conditions: Table 23; application herbicide amount 320 g/ha; grade 0-5 by criteria of Test Example 1
In short: as §2

[6] = tested on: Setaria viridis; assay: Test Example 4: herbicidal effect by soil treatment (symbol G); conditions: for Herbicidal effect grade, G: Setaria viridis: application herbicide amount 320 g/ha
In short: (§3)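 Seeds were sown in sterilized diluvial soil, covered with about 1.5 cm of soil, and the soil surface was sprayed with a water-diluted emulsion of the compound at a predetermined rate. Plants grew in a greenhouse at 25° C. to 30° C.; effects were scored visually 3 weeks after application.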

[7] = tested on: Abutilon theophrasti; assay: Test Example 4: herbicidal effect by soil treatment (symbol M); conditions: for Herbicidal effect grade, M: Abutilon theophrasti: application herbicide amount 320 g/ha
In short: as §3

[8] = tested on: corn; assay: Test Example 4: effect on crop by soil treatment (symbol c); conditions: for Effect on crop grade, c: corn: application herbicide amount 320 g/ha
In short: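 Diluvial soil (sterilized) in boxes; seeds placed spot-wise alongside weed species; ~1.5 cm covering soil. Greenhouse, 25–30° C.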

[9] = tested on: wheat; assay: Test Example 4: effect on crop by soil treatment (symbol e); conditions: for Effect on crop grade, e: wheat: application herbicide amount 320 g/ha
In short: (§4)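 Soil-treatment setup: crop and weed seeds were spot-sown into sterilized diluvial soil, then buried beneath approximately 1.5 cm of it, and the boxes were housed in a 25–30° C. greenhouse.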

[10] = tested on: beet; assay: Test Example 4: effect on crop by soil treatment (symbol f); conditions: for Effect on crop grade, f: beet: application herbicide amount 320 g/ha
In short: as §4

[11] = tested on: Alopecurus myosuroides; assay: Test Example 5: herbicidal effect by foliage application, plastic box (symbol J); conditions: 320 g/ha, 3 weeks after application
In short: (§5)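 Leaf-applied emulsion, water-diluted to a preset herbicide dose, on two-week-old seedlings raised in a 25° C. to 30° C. greenhouse; injury rated at 3 weeks using earlier criteria.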

[12] = tested on: Lolium multiflorum Lam.; assay: Test Example 5: herbicidal effect by foliage application, plastic box (symbol K); conditions: 320 g/ha, 3 weeks after application
In short: as §5

[13] = tested on: Amaranthus retroflexus; assay: Test Example 5: herbicidal effect by foliage application, plastic box (symbol N); conditions: 320 g/ha, 3 weeks after application
In short: as §5

[14] = tested on: Galium spurium; assay: Test Example 5: herbicidal effect by foliage application, plastic box (symbol Q); conditions: 320 g/ha, 3 weeks after application
In short: as §5

[15] = tested on: rice plant; assay: Test Example 5: effect on crop by foliage application, plastic box (symbol b); conditions: 320 g/ha, 3 weeks after application
In short: (§6)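 A greenhouse held between 25° C. and 30° C. was used to grow plants sown spot-wise, beneath ~1.5 cm of soil, in boxes of sterilized diluvial soil.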

[16] = tested on: beet; assay: Test Example 5: effect on crop by foliage application, plastic box (symbol f); conditions: 320 g/ha, 3 weeks after application
In short: as §6

Structure (SMILES)	A (Echinochloa oryzacola Vasing.) herbicidal effect grade [1]	C (Monochoria vaginalis) herbicidal effect grade [2]	Herbicidal effect grade, A: Echinochloa oryzacola Vasing. [3]	Herbicidal effect grade, B: Scirpus juncoides [4]	Herbicidal effect grade, C: Monochoria vaginalis [5]	Herbicidal effect grade, G: Setaria viridis [6]	Herbicidal effect grade, M: Abutilon theophrasti [7]	Effect on crop grade, c: corn [8]	Effect on crop grade, e: wheat [9]	Effect on crop grade, f: beet [10]	J: Alopecurus myosuroides, herbicidal effect grade [11]	K: Lolium multiflorum Lam., herbicidal effect grade [12]	N: Amaranthus retroflexus, herbicidal effect grade [13]	Q: Galium spurium, herbicidal effect grade [14]	b: directly sowed rice plant, effect on crop grade [15]	f: beet, effect on crop grade [16]	other results
CC(CC1CC(O)=C(c2c(C)cc(-n3cc(Cl)cn3)cc2C)C1=O)=NOCC(F)(F)F (stereo not shown) [9-010]	5 (Herbicidal ratio of 90% or more (almost completely withered))	4 (Herbicidal ratio of 70% or higher and lower than 90%)	4 (Herbicidal ratio of 70% or higher and lower than 90%)	4 (Herbicidal ratio of 70% or higher and lower than 90%)	1 (Herbicidal ratio of 5% or higher and lower than 20%)	5 (Herbicidal ratio of 90% or more (almost completely withered))	0 (Herbicidal ratio of 5% or lower (almost no effect))	1 (Herbicidal ratio of 5% or higher and lower than 20%)	0 (Herbicidal ratio of 5% or lower (almost no effect))	0 (Herbicidal ratio of 5% or lower (almost no effect))	5 (Herbicidal ratio of 90% or more (almost completely withered))	5 (Herbicidal ratio of 90% or more (almost completely withered))	3 (Herbicidal ratio of 40% or higher and lower than 70%)	3 (Herbicidal ratio of 40% or higher and lower than 70%)	5 (Herbicidal ratio of 90% or more (almost completely withered))	0 (Herbicidal ratio of 5% or lower (almost no effect))	–
COCCON=C(CC1CC(O)=C(c2c(C)cc(Br)cc2C)C1=O)C1CC1 (stereo not shown) [9-019]	4 (Herbicidal ratio of 70% or higher and lower than 90%)	0 (Herbicidal ratio of 5% or lower (almost no effect))	3 (Herbicidal ratio of 40% or higher and lower than 70%)	0 (Herbicidal ratio of 5% or lower (almost no effect))	0 (Herbicidal ratio of 5% or lower (almost no effect))	5 (Herbicidal ratio of 90% or more (almost completely withered))	0 (Herbicidal ratio of 5% or lower (almost no effect))	0 (Herbicidal ratio of 5% or lower (almost no effect))	0 (Herbicidal ratio of 5% or lower (almost no effect))	0 (Herbicidal ratio of 5% or lower (almost no effect))	4 (Herbicidal ratio of 70% or higher and lower than 90%)	5 (Herbicidal ratio of 90% or more (almost completely withered))	0 (Herbicidal ratio of 5% or lower (almost no effect))	0 (Herbicidal ratio of 5% or lower (almost no effect))	3 (Herbicidal ratio of 40% or higher and lower than 70%)	0 (Herbicidal ratio of 5% or lower (almost no effect))	–
Cc1cc(C)c(C2=C(O)CC(CC(=NOCC(F)(F)F)C3CC3)C2=O)c(C)c1 (stereo not shown) [1-131]	–	–	4 (Herbicidal ratio of 70% or higher and lower than 90%)	4 (Herbicidal ratio of 70% or higher and lower than 90%)	0 (Herbicidal ratio of 5% or lower (almost no effect))	–	–	–	–	–	–	–	–	–	–	–	Herbicidal effect grade, A: Echinochloa oryzacola Vasing. [1]: 5 (Herbicidal ratio of 90% or more (almost completely withered)); Herbicidal effect grade, C: Monochoria vaginalis [2]: 1 (Herbicidal ratio of 5% or higher and lower than 20%); G: Setaria viridis, herbicidal effect grade ([6]; 320 g/ha): 5 (Herbicidal ratio of 90% or more (almost completely withered)); M: Abutilon theophrasti, herbicidal effect grade ([7]; 320 g/ha): 0 (Herbicidal ratio of 5% or lower (almost no effect)); c: corn, effect grade on crop ([8]; 320 g/ha): 0 (Herbicidal ratio of 5% or lower (almost no effect)); e: wheat, effect grade on crop ([9]; 320 g/ha): 0 (Herbicidal ratio of 5% or lower (almost no effect)); f: beet, effect grade on crop ([10]; 320 g/ha): 0 (Herbicidal ratio of 5% or lower (almost no effect)); J: Alopecurus myosuroides, herbicidal effect (criteria 0-5) [11]: 5 (Herbicidal ratio of 90% or more (almost completely withered)); K: Lolium multiflorum Lam., herbicidal effect (criteria 0-5) [12]: 5 (Herbicidal ratio of 90% or more (almost completely withered)); N: Amaranthus retroflexus, herbicidal effect (criteria 0-5) [13]: 0 (Herbicidal ratio of 5% or lower (almost no effect)); Q: Galium spurium, herbicidal effect (criteria 0-5) [14]: 0 (Herbicidal ratio of 5% or lower (almost no effect)); b: directly sowed rice plant, effect on crop (criteria 0-5) [15]: 4 (Herbicidal ratio of 70% or higher and lower than 90%); f: beet, effect on crop (criteria 0-5) [16]: 0 (Herbicidal ratio of 5% or lower (almost no effect))
CC#Cc1cc(C)c(C2=C(O)CC(CC(C)=NOCC(F)(F)F)C2=O)c(C)c1 (stereo not shown) [9-011]	5 (Herbicidal ratio of 90% or more (almost completely withered))	4 (Herbicidal ratio of 70% or higher and lower than 90%)	5 (Herbicidal ratio of 90% or more (almost completely withered))	5 (Herbicidal ratio of 90% or more (almost completely withered))	4 (Herbicidal ratio of 70% or higher and lower than 90%)	5 (Herbicidal ratio of 90% or more (almost completely withered))	3 (Herbicidal ratio of 40% or higher and lower than 70%)	5 (Herbicidal ratio of 90% or more (almost completely withered))	4 (Herbicidal ratio of 70% or higher and lower than 90%)	0 (Herbicidal ratio of 5% or lower (almost no effect))	5 (Herbicidal ratio of 90% or more (almost completely withered))	5 (Herbicidal ratio of 90% or more (almost completely withered))	2 (Herbicidal ratio of 20% or higher and lower than 40%)	1 (Herbicidal ratio of 5% or higher and lower than 20%)	5 (Herbicidal ratio of 90% or more (almost completely withered))	0 (Herbicidal ratio of 5% or lower (almost no effect))	–
